# Measured values from article PMC9077138, “An investigation on 3-acetyl-7-methoxy-coumarin Schiff bases and their Ru(II) metallates with potent antiproliferative activity and enhanced LDH and NO release” (RSC Advances, 2018).
# Legend:
# S. aureus = test: In vitro antibacterial assay (zone of inhibition, MIC); format: cell-based, Staphylococcus aureus; conditions: S. aureus
# Protocol: The free ligands and their cyclometallated ruthenium(II) carbonyl complexes were screened for their in vitro antimicrobial activity against certain pathogenic bacterial and fungal species at three different concentrations using disc diffusion method.
# (§1) Antimicrobial activities of [RuHClCO(PPh3)3], ligands H2L^1–4 and new organometallic Ru(II) complexes (1–4) were evaluated by agar well diffusion method[76] as reported, by taking Staphylococcus aureus, Streptococcus pneumonie, Pseudomonas aeruginosa, Salmonella paratyphi and fungus such as Candida albicans, Trichophyton rubrum, Aspergillus niger, Aspergillus fumigatus and Candida tropicalis. The above said all test organisms were obtained from the MTCC, Chandigarh, India and Microbiological laboratory, Coimbatore, Tamil Nadu, India. The antimicrobial activity of the test compounds was checked with various concentrations (25 μg ml^−1, 50 μg ml^−1 and 100 μg ml^−1) against all the test pathogens. Gentamicin and ketoconazole were used as positive controls to study the antibacterial and antifungal activities respectively. Each experiment was performed in triplicate and the results are represented as average zone of inhibition and minimum inhibitory concentration of all the test pathogens.
# S. paratyphi = test: as above; format: cell-based, Salmonella paratyphi
# Text: The free ligands and their cyclometallated ruthenium(II) carbonyl complexes were screened for their in vitro antimicrobial activity against certain pathogenic bacterial and fungal species at three different concentrations using disc diffusion method. […] Tested complexes had better antimicrobial activity than the ligands against all pathogens. This may be explained by Tweedy's chelation theory.[61] Coordination of ligands reduce the polarity of the metal ion essentially by partial sharing of its positive charge with the donor groups within the chelate ring system formed during the coordination and leading to the increase in lipophilic nature of the central metal atom, which favours the effective permeation through the lipid layer of microorganism.[61,62] […] When tested against T. rubrum, the activity of the complexes in the order of 3 > 2 > 1 > 4. In antibacterial studies, the complex 3 was effective against S. aureus followed by complex 2, 1 and 4 and in the case of S. pneumonie the activity of the complexes follows the order of 3 > 1 > 4 > 2. […] When tested against S. paratyphi complex 1 stood out as good followed by the complexes 4, 3 and 2 respectively.
# as §1
# HSA = molecular target: T1, HSA (Homo sapiens, UniProt P02768); test: HSA tryptophan fluorescence quenching; format: binding
# T1 construct: purchased HiMedia (Mumbai, India)
# T1 sequence (P02768 25-609): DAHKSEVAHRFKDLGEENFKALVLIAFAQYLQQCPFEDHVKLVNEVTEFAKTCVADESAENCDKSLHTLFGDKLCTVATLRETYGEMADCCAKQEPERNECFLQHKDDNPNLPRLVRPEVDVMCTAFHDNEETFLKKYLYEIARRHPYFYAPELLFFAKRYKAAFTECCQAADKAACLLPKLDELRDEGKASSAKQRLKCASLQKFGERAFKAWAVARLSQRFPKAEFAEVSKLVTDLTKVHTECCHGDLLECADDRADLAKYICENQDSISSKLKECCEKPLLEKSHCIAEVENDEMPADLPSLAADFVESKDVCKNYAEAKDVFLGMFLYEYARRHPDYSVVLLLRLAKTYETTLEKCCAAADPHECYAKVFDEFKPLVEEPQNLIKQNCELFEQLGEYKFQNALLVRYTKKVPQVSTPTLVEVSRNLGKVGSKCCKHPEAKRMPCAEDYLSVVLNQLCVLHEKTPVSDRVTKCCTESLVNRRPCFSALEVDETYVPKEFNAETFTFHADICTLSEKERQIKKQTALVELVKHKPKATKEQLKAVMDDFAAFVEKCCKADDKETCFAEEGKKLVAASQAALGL
# Text: The obtained results confirmed the interaction of the ligands and complexes with serum albumins. The absorption spectra of the serum albumins in the absence and presence of ligands H2L^1–4 and the complexes 1–4 are given in Fig. S29 in the ESI. ^† On adding ligands and complexes 1–4 to albumins, the absorbance intensity of serum albumins was decreased with a red shift of 2 nm. The observed changes indicated a static quenching mechanism of serum albumins by the ligands and complexes (1–4). To obtain a quantitative insight into the quenching progression, the Stern–Volmer quenching constant (KSV) and the quenching constant (Kq) were calculated from the Stern–Volmer equation using the Io/ICorrversus [Q] plot (Table 4).[53] The observed linearity in the plots (Fig. 13) indicated the ability of the compounds to quench the emission intensity of serum albumins and the order of quenching constant of the compounds is complex 3 > complex 2 > complex 1 > complex 4 > H2L^3 > H2L^2 > H2L^1 > H2L^4.
# Furthermore, the equilibrium binding constant and number of binding sites were evaluated by using the Scatchard equation. The Kbin values were derived from the graph between log[(Fo − F)/F] and log[Q] From the results, we confirmed that the Ru(II) complexes having a large hydrophobic area can interact more efficiently than the ligands with serum albumins via a static pathway. The higher binding affinity of the complexes over the ligands may be due to the efficient binding of protein moiety with the complexed metal ions. Here, the binding affinities of the complexes with serum albumins followed the same order as those with DNA binding studies, complex 3 > complex 2 > complex 1 > complex 4 > H2L^3 > H2L^2 > H2L^1 > H2L^4. Variation in the binding affinity of the compounds with serum albumins depends on the electron-donating ability of the ligand, i.e. the substitution on the N-terminal nitrogen atom. The binding capability of the compounds to serum albumins increased with the increase in electron-donating ability of the substituent on the terminal nitrogen of the coordinated thiosemicarbazone ligand. The obtained quenching constant and binding constant values of these new cyclometallated ruthenium(II) complexes agree well with those reported for other ruthenium(II) complexes.[31,44,54–56] […]
# Serum albumin binding study
# Bovine Serum Albumin (BSA) and human serum albumin were purchased from Hi Media, The protein binding study was performed by tryptophan fluorescence quenching experiments using bovine serum albumin (BSA, 10 µM) or human serum albumin (HSA, 10 µM) as the substrate in phosphate buffer (pH= 7.2). Quenching of the emission intensity of tryptophan residues of BSA at 346 nm (excitation wavelength at 280 nm)/ HSA at 345 nm (excitation wavelength at 290 nm) was monitored using ligands and complexes as quenchers with increasing concentration (10-100µM). Synchronous fluorescence spectra of BSA or HSA with various concentrations of the complexes were obtained from 300 to 400 nm when ∆λ = 60 nm and from 290 to 500 nm when ∆λ = 15 nm. For synchronous fluorescence spectra, the same concentrations of serum albumins and the compounds were also used and the spectra were measured at two different Δλ values (difference between the excitation and emission wavelengths of BSA), such as 15 and 60 nm. Fluorescence and synchronous measurements were performed using a 1 cm quartz cell on a JASCO FP 6600 spectrofluorimeter.
# The quenching data can be analyzed according to the Stern-Volmer equation, […]
# Io/Icorr =K SV[Q]+1 Eq (S2) where Iₒ is the emission intensity in the absence of compound, Icorr is the corrected emission intensity in the presence of compound, KSV is the quenching constant and [Q] is the concentration of the compound.
# In order to correct the inner filter effect, the following equation used Icorr = Iobs*10 (Aexc+Aem)/2 where Icorr is the corrected fluorescence value, Iobs the measured fluorescence value, Aexc is […]
# Candida tropicalis = test: In vitro antifungal assay (zone of inhibition, MIC); format: cell-based
# Trichophyton rubrum = test: as above; format: cell-based
# Aspergillus fumigatus = test: as above; format: cell-based
smiles,measurement,setting,value
"CCNC1=N[N+]2=C(C)c3[c](c4ccc(OC)cc4oc3=O)[Ru-4]2([C]#[O+])([P+](c2ccccc2)(c2ccccc2)c2ccccc2)([P+](c2ccccc2)(c2ccccc2)c2ccccc2)[S]1 [Complex 3, [Ru(7MAC-etsc)(CO)(PPh3)2]]",Minimum inhibitory concentration (MIC); head: IC50 VALUES,S. aureus,13.14 ± 0.12 µM
same,Zone of inhibition,S. aureus; 50 µg/ml,12.04±0.60 mm
same,Zone of inhibition,S. aureus; 100 µg/ml,17.14±0.12 mm
same,Zone of inhibition,S. paratyphi; 50 µg/ml,12.53±0.14 mm
same,Zone of inhibition,S. paratyphi; 100 µg/ml,17.44±0.27 mm
same,Quenching constant kq,HSA; HSA,1.189 ± 0.030 × 10^12 M^−1 s^−1
same,Stern–Volmer KSV,HSA; HSA,1.189 ± 0.030 × 10^4 M^−1
same,number of binding sites n,HSA; HSA,1.2027 ± 0.030
same,Binding constant Kbin,"HSA; HSA, Scatchard equation",7.194 ± 0.041 × 10^4 M^−1
same,decrease of HSA fluorescence intensity,"HSA; compounds 10–100 μM, HSA 10 μM",53.45%
same,Minimum inhibitory concentration (MIC); head: IC50 VALUES,Candida tropicalis,13.37 ± 0.16 µM
same,Zone of inhibition,Candida tropicalis; 50 µg/ml,13.55±0.34 mm
same,Zone of inhibition,Candida tropicalis; 100 µg/ml,17.91±0.31 mm
same,Minimum inhibitory concentration (MIC); head: IC50 VALUES,Trichophyton rubrum,14.97 ± 0.31 µM
same,Zone of inhibition,Trichophyton rubrum; 50 µg/ml,13.25±0.52 mm
same,Zone of inhibition,Trichophyton rubrum; 100 µg/ml,17.44±0.61 mm
same,Minimum inhibitory concentration (MIC); head: IC50 VALUES,Aspergillus fumigatus,14.44 ± 0.27 µM
same,Zone of inhibition,Aspergillus fumigatus; 50 µg/ml,13.53±0.13 mm
same,Zone of inhibition,Aspergillus fumigatus; 100 µg/ml,18.31±0.21 mm
